# Reference: patent US9897607B2, “Methods, kits, and systems for treatment of metastatic papillary thyroid cancer” (The Governors of the University of Alberta, priority 2012, dated 2018)
# Entries after “also recorded” stand apart in the source; their conditions may differ.
# Key:
# thyroid cancer = thyroid cancer trials; cited from earlier work
# TPC-1 cell line [1] = assay: Cytoselect cell invasion assay, TPC-1; assay type: cell-based, human
# Protocol: (§1) As previously described, Cytoselect™ 96-well cell invasion assay kit was used (Cell Biolabs, San Diego, Calif., USA) to assess cell invasiveness according to the manufacturer's protocol.^46 Briefly, TPC-1, BCPAP and 8305C after transfected with either PDGFRα siRNA or scramble siRNA, 10000 cells were starved overnight and added to the inserts, PDGF-BB was added to some wells at the concentration of 25 ng/mL, PDGF-BB was added 1 h later for inhibitors, sunitinib (0.2 umol/L), Ly294002 (10 umol/L) and (U0126) 2 umol/L, cells were seeded into the insert plate for 16 hours, the invasive cells passed through basement membrane layer to the bottom and dissociated from membrane by the addition of cells detachment buffer, the invasive cells were lysed and followed by quantification using CyQuant GR fluorescent Dye. For cell viability analysis 10000 cells were seeded per well and cultured for 16 hours. MTS assay (Promega, Madison, USA) was then performed in 4 replicates followed manufacturer's instructions. PTC cell lines transfected with PDGFR specific siRNA or scrambled control were plated at a density of 10,000 or 20,000/ml and cultured for 5 days. Cell counts were done on days 2, 3 and 5 using trypan blue (Sigma-Aldrich, Oakville, Canada) and results expressed as total number of viable cells. MTS assay was done in 7 replicates as per manufacturer's instructions. The absorbance was recorded by a BioRad spectrophotometer at day 5 of cell culture.
# TPC-1 cell line [2] = assay: Cell viability (MTS assay), TPC-1; assay type: cell-based, human; conditions: small molecule inhibitors Ly294002, U0126, 16 hours
# Protocol: as §1, with “MTS assay was done in 7 replicates as per manufacturer's instructions.” left out
# [3] = tested on: PDGFR-α/β, MAPK/ERK and PI3K/Akt pathways in TPC-1 cells; assay: Western blot of PDGFR activation and MAPK/ERK, PI3K/Akt signalling, TPC-1; assay type: cell-based, human
# Protocol: (§2) Primary cell culture and experimental cell lines were maintained in RPMI 1640 media supplemented with 10% FBS. The cells were seeded in a 100-mm culture dish and were grown in a humidified 5% CO2 incubator. For PDGF-BB stimulation (25 ng/ml), cells were grown to about 80% confluence and incubated in serum-free medium overnight prior to each experiment. MAPK/ERK inhibitors U0126 and PD98059 were purchased from Calbiochem (Toronto, Ontario, Canada). PI3K/Akt inhibitor ly294002 was purchased from Cell Signaling Technology (Danvers, Mass., USA). Cells that were treated with inhibitors were given varying concentrations: U0126; 2 umol/L and 10 umol/L; Ly294002 10 umol/L and 25 umol/L; Sunitinib 0.25 umol/L. In all cases, unless otherwise indicated the inhibitors were given to cells and 60 minutes later the PDGF-BB was added to the cultures followed by Western blot analysis.
# (§3) Cells were lysed in RIPA buffer [150 mM NaCl, 100 mM Tris (pH 8.0), 1% Triton X-100, 1% deoxycholic acid, 0.1% SDS, 5 mM EDTA, and 10 mM NaF] supplemented with 1 mM sodium vanadate, 2 mM leupeptin, 2 mM aprotinin, 1 mM phenylmethylsulfonyl fluoride (PMSF), 1 mM DTT, 2 mM pepstatin, and 1:100 protease inhibitor cocktail set III on ice. After centrifugation at 4° C. at 18,000 rpf for 15 min, the supernatant was harvested as the total cellular protein extracts and stored at −80° C. The protein concentration was determined using Bio-Rad protein assay reagent (Richmond, Va., USA). Running samples were prepared by adding a sample reducing agent and SDS sample buffer, incubating at 98° C. for 5 min. Aliquots of protein extract samples were separated by SDS-polyacrylamide gel electrophoresis (SDS-PAGE) and transferred to nitrocellulose membrane. Membranes were blocked with 5% nonfat dry milk in 1×TBS containing 0.05% Tween-20 for 60 min, followed by incubation with primary antibodies 4° C. overnight. Protein bands were detected by incubation with horseradish peroxidase-conjugated antibodies (Pierce Biotechnology, Rockford, Ill., USA) and visualized with SuperSignal West Pico chemiluminescence substrate (Thermo Scientific, Rockford, Ill., USA).
# [4] = tested on: PDGFR-α (phospho-PDGFR), PI3K/Akt and MAPK/ERK pathways; assay: Western blot of primary cell culture from metastatic papillary thyroid cancer lymph node, PDGF-BB stimulation; assay type: cell-based, human
# Protocol: as §2, §3
# 8305C cell line = assay: Cytoselect cell invasion assay, 8305C; assay type: cell-based, human
# Protocol: as §1
# BCPAP cell line = assay: Cytoselect cell invasion assay, BCPAP; assay type: cell-based, human
# Protocol: as §1, with “MTS assay was done in 7 replicates as per manufacturer's instructions.” left out
# [5] = tested on: TPC-1, 8305C and BCPAP cell lines; assay: Cell growth of PTC cell lines with sunitinib (FIG. 6); assay type: cell-based, human; conditions: all of the cell lines; absence of PDGF-BB stimulation
# [6] = tested on: PDGFR-α/β, MAPK/ERK and PI3K/Akt pathways in 8305C cells; assay: Western blot of PDGFR activation and MAPK/ERK, PI3K/Akt signalling, 8305C; assay type: cell-based, human
# Protocol: as §2, §3
# TPC-1-derived cell lines = assay: Mice xenograft model with shRNA TPC-1-derived cell lines; assay type: in vivo; conditions: mice inoculated with cell lines in Matrigel; 20 days after inoculation; versus other groups
# Protocol: To selectively and stably silence the expression of the PDGFR-alpha and-beta receptors in the TPC-1, BCPAP and 8305C cell lines we used the HuSH-29 shRNA Vector system (HuSH-29 shRNA Retroviral Vector Systems; OriGene Technologies, Inc.). Briefly, to silence the expression of the PDGFR-alpha receptor PTC cells were transduced with the pRS shRNA retrovirus system (Puro+) followed by selection in puromycin (2.5 ug/mL). Resistant cells were assessed by western blot to select the sequences that produced the higest levels of protein expression knock-down. The sequences used for these studies were […] (SEQ ID NO: 1) for the TPC-1 cell line and […] (SEQ ID NO: 2) for the 8305C cell line. To selectively knock down the PDGFR-beta receptor were transduced with the pGFP-BR-S shRNA retrovirus system (BSD+) followed by selection in blasticidin (500 ug/mL). Resistant cells were again assessed by western blot to select the sequences that produced the higest levels of protein expression knock-down. […]
# The experiments of FIG. 13 depict knock down of PDGFR-alpha or -beta subunit results in opposing effects in tumour formation on a mice xenograft model. […] The average tumour volume (top panel) and tumour weight (bottom panel) was much higher for mice given cell lines expressing only PDGFR-alpha and statistical significance between groups were calculated 20 days after inoculation.
# KTC-1 cell line = assay: Cytoselect cell invasion assay, KTC-1; assay type: cell-based, human; conditions: KTC-1 (neither subunit); also increasing levels or longer stimulation
# [7] = primary culture, PDGF-BB 25 ng/ml
compound,measurement,setting,value
"CNC(=O)c1cc(Oc2ccc(NC(=O)Nc3ccc(Cl)c(C(F)(F)F)c3)cc2)ccn1 [Sorafenib, sorafenib]",outcomes,thyroid cancer,favourable outcomes
same,side-effect profiles,thyroid cancer,acceptable side-effect profiles
N#CC(=C(/N)Sc1ccccc1N)/C(C#N)=C(\N)Sc1ccccc1N [U0126],PDGF-BB mediated increases in invasive potential,"TPC-1 cell line [1]; TPC-1, U0126 2 umol/L (MAPK/ERK blockade), PDGF-BB 25 ng/mL 1 h later, 16 hours",sufficient to abrogate increases in invasive potential; also recorded: prevents PDGF-BB mediated increases in invasive potential
same,cell viability,TPC-1 cell line [2],not significantly altered
same,MAPK/ERK pathway blockade (Western blot),"[3]; PDGF-BB stimulated TPC-1 cells, U0126 2 umol/L and 10 umol/L",decreased protein expression; also recorded: nearly complete
"CCN(CC)CCNC(=O)c1c(C)[nH]c(/C=C2\C(=O)Nc3ccc(F)cc32)c1C [sunitinib, Sunitinib malate]",activation of PDGFR (phospho-PDGFR) and downstream PI3K/Akt and MAPK/ERK pathways by PDGF-BB,"[4]; sunitinib 0.25 umol/L given 60 minutes before PDGF-BB 25 ng/ml, semi-quantitative Western blot",can be blocked; also recorded: completed blocked
same,change in invasive potential with PDGF-BB stimulation,"TPC-1 cell line [1]; TPC-1, sunitinib 0.2 umol/L, PDGF-BB 25 ng/mL added 1 h later, 16 hours",virtually completely abates any change in invasive potential; also recorded: abated any change in invasive potential
same,invasive potential without PDGF-BB stimulation,"TPC-1 cell line [1]; TPC-1, sunitinib 0.2 umol/L, no PDGF-BB",does not alter invasive potential
same,change in invasive potential with PDGF-BB stimulation,"8305C cell line; 8305C, sunitinib 0.2 umol/L, PDGF-BB 25 ng/mL added 1 h later, 16 hours",virtually completely abates any change in invasive potential; also recorded: abated any change in invasive potential
same,invasive potential without PDGF-BB stimulation,"8305C cell line; 8305C, sunitinib 0.2 umol/L, no PDGF-BB",does not alter invasive potential
same,invasive potential without PDGF-BB stimulation,"BCPAP cell line; BCPAP, sunitinib 0.2 umol/L, no PDGF-BB",does not alter invasive potential
same,effect on cell growth,[5],not significant
same,activation of PDGFR-α/β (phospho-PDGFR),"[3]; TPC-1, sunitinib 0.25 umol/L, PDGF-BB 25 ng/ml 60 minutes later",completely disrupts PDGFR activation; also recorded: completely blocks activation of PDGFR-α/β
same,activity in PI3K/Akt and MAPK/ERK pathways,"[3]; TPC-1, sunitinib 0.25 umol/L, PDGF-BB stimulated",significant decreased activity
same,activation of PDGFR-α/β (phospho-PDGFR),"[6]; 8305C, sunitinib 0.25 umol/L, PDGF-BB 25 ng/ml 60 minutes later",completely disrupts PDGFR activation; also recorded: completely blocks activation of PDGFR-α/β
same,activity in PI3K/Akt and MAPK/ERK pathways,"[6]; 8305C, sunitinib 0.25 umol/L, PDGF-BB stimulated",significant decreased activity
same,outcomes,thyroid cancer,favourable outcomes
same,side-effect profiles,thyroid cancer,acceptable side-effect profiles
"TGCCTCCGACGAGATCTATGAGATCATGC (SEQ ID NO: 3) (listed as Homo sapiens) [sh PDGFR-beta, shRNA (pGFP-BR-S retrovirus system) knocking down PDGFR-beta in TPC-1; cells then express only PDGFR-alpha]",average tumour volume,TPC-1-derived cell lines,much higher
same,tumour weight,TPC-1-derived cell lines,much higher
"PDGF-BB: PDGFR ligand known to bind all subunits of PDGFR, purchased from GIBCO",phospho-Akt (PI3K/Akt pathway),[4]; [7],significant increases
same,phospho-ERK (MAPK/ERK pathway),[4]; [7],small increase
same,phospho-PDGFR,[4]; [7],activated PDGFR-α
same,invasive potential on PDGF-BB stimulation,"TPC-1 cell line [1]; TPC-1 (PDGFR-α and -β), PDGF-BB 25 ng/mL",significant increase in invasive potential; also recorded: increased invasive potential
same,invasive potential on PDGF-BB stimulation,"8305C cell line; 8305C (PDGFR-α only), PDGF-BB 25 ng/mL",significant increase in invasive potential; also recorded: increased invasive potential
same,invasive potential on PDGF-BB stimulation,"BCPAP cell line; BCPAP (PDGFR-β only), PDGF-BB 25 ng/mL",did not exhibit any change in invasive potential
same,invasive potential on PDGF-BB stimulation,KTC-1 cell line,did not exhibit any change in invasive potential
same,"phospho-PDGFR-α/β, phospho-Akt, and phospho-ERK","[3]; TPC-1, PDGF-BB 25 ng/ml",strong up-regulation
same,time of return of levels to baseline,"[3]; TPC-1, PDGF-BB stimulation",~60 min
same,"time to increases in phospho-PDGFR-α/β, phospho-Akt and phospho-ERK","[3]; TPC-1, PDGF-BB stimulation",≤ 5 min
same,time to maximal activation of both pathways,"[3]; TPC-1, PDGF-BB stimulation",≤ 15 min
same,phospho-ERK,"[6]; 8305C (BRAF mutation, MAPK/ERK constitutively activated), PDGF-BB",small increase
same,"phospho-PDGFR-α/β, phospho-Akt, and phospho-ERK","[6]; 8305C, PDGF-BB 25 ng/ml",strong up-regulation
O=c1cc(N2CCOCC2)oc2c(-c3ccccc3)cccc12 [Ly294002],cell viability,TPC-1 cell line [2],not significantly altered
